Measurements: US9399631B2, “Polyphenol proteasome inhibitors, synthesis, and methods of use” (UNIVERSITY OF SOUTH FLORIDA, priority 2003, dated 2016)

Key:
purified 20S proteasome [1] = test: Inhibition of chymotrypsin-like activity of purified 20S proteasome (source not stated); format: biochemical
Description: (§1) Inhibition of purified 20S proteasome activity by natural or synthetic GTPs. Purified prokaryotic (0.5 μg) or eukaryotic (0.02 μg) 20S proteasome was incubated with 20 μM fluorogenic peptide substrate, Suc-Leu-Leu-Val-Tyr-AMC for 30 min at 37° C. in […] of assay buffer (50 mM Tris-HCl, pH 7.5), with or without a natural or synthetic tea polyphenol. After incubation, production of hydrolyzed 7-amido-4-methyl-coumarin (AMC) groups was measured using a multi-well plate VERSAFLUOR Fluorometer with an excitation filter of 380 nm and an emission filter of 460 nm (BIO-RAD), and a multi-well plate reader Wallac 1420 VICTORTM^2 with an excitation filter of 355 nm and an emission filter of 460 nm (EG&G WALLAC).

purified 20S proteasome [2] = target: T1, purified 20S proteasome (UniProt G1T4Q9); test: as above; format: biochemical; conditions: chymotrypsin-like activity of purified 20S proteasome
T1 construct: IC50; other: chymotrypsin-like activity of purified 20S proteasome
Description: as §1

LNCaP cells [3] = test: Western blot of proteasome target proteins in LNCaP cells; format: cell-based, human; conditions: 50 μM, 3 to 12 hours
Description: Cell Culture, Cell Extract Preparation, and Western Blot Assay. Human leukemia Jurkat T and prostate cancer LNCaP cells were cultured in RPMI 1640 medium supplemented with 10% fetal calf serum, 100 units/ml of penicillin, and 100 μg/ml streptomycin. Human immortalized, non-transformed NK cells (YT cell line) (38) were cultured in RPMI 1640 supplemented with 1 mM MEM sodium pyruvate solution, 0.1 mM MEM non-essential amino acids solution, 10% fetal calf serum. 100 units/ml penicillin, and 100 μg/ml streptomycin. Normal (WI-38) and simian virus 40 (SV40)-transformed (VA-13) human fibroblasts were grown in Dulbecco's modified Eagle's medium supplemented with 10% fetal calf serum, 100 units/ml of penicillin and 100 μg/ml of streptomycin. All cells were maintained at 37° C. in a humidified incubator with an atmosphere of 5% CO2. A whole cell extract was prepared in accordance with An et al. (An, B. et al. Cell Death Differ, 1998, 5:1062-75). Briefly, cells were harvested, washed with PBS twice, and homogenized in a lysis buffer [50 mM Tris-HCl (pH 8.0), 5 mM EDTA, 150 mM NaCl, 0.5% NP-40, 0.5 mM phenylmethylsulfonyl fluoride, and 0.5 mM dithiothreitol] for 30 min at 4° C. Afterwards, lysates were centrifuged at 12,000×g for 15 min at 4° C., and the supernatants were collected as whole cell extracts. Equal amounts of protein extract (60 μg) were resolved by SDS-polyacrylamide gel electrophoresis and transferred to a nitrocellulose membrane using a Semi-Dry Transfer system (BIO-RAD, Hercules, Calif.). Jurkat T, LNCaP, or DU-145 cells were treated with various concentrations of synthetic or natural tea polyphenols for indicted hours. The enhanced chemiluminescence (ECL) Western blot analysis was then performed using specific antibodies to the proteins of interest (p^27kip, IκB-α, PARP, Bax or actin). The ratio of p27 or IκB-α to the corresponding actin was determined by scanning intensities of the protein bands.
To investigate whether (−)-EGCG-amide and (+)-EGCG-amide inhibit intact tumor cell proteasome activity, human prostate cancer LNCaP cells were treated with 25 μM of (−)- or (+)-EGCG-amide for up to 9 hours, followed by measurement of p27, IκB-α and Bax, three well-known proteasome target proteins (Pagano, M. et al. Science, 1995, 269:682-685; An, B. et al. Cell Death Differ, 1998, 5:1062-75; Sun, J. et al. Cancer Res, 2001, 61:1280-1284; Palombella, V. J. et al. Cell, 1994, 78:773-785; Thompson, J. E. et al. Cell, 1995, 80:573-582; Perkins, N. D. Trends Biochem Sci, 2000, 25:434-440; Chang, Y. C. et al. Cell Growth Differ, 1998, 9:79-84; Li, B. and Dou, Q. P. Proc Natl Acad Sci USA, 2000, 97:3850-3855; Nam, S. et al. Cancer Epidemiol Biomarkers Prey, 2001, 10:1083-1088). In this experiment (−)-EGCG and (+)-EGCG were used as positive controls.
Having determined that the synthetic GTP-1 to −5 analogs are able to inhibit the proteasomal chymotrypsin-like activity in vitro (FIG. 8), these compounds were investigated for their potency in inhibiting intact tumor cellular proteasome activity. To do so, human prostate cancer LNCaP cells were treated with one of these compounds for the indicated hours, followed by measuring levels of proteasome target proteins, p27, IκB-α, and Bax, and polyubiquitinated proteins.

Jurkat T cells = test: Flow cytometry cell cycle analysis, Jurkat T cells; format: cell-based, human; conditions: 24 hours
Description: (§2) Flow Cytometry. Cell cycle analysis based on DNA content was performed as in An et al. (An, B. et al. Cell Death Differ, 1998, 5:1062-75). At each time point, cells were harvested, counted, and washed twice with PBS. Cells (5×10^6) were suspended in 0.5 ml PBS, fixed in 5 ml of 70% ethanol overnight at −20° C., centrifuged, resuspended again in 1 ml of propidium iodide staining solution (50 μg propidium iodide, 100 units RNase A and 1 mg glucose per ml PBS), and incubated at room temperature for 30 minutes. The cells were then analyzed with FACScan (Becton Dickinson Immunocytometry, Calif.), ModFit LT and WinMDI V.2.8 cell cycle analysis software (Verity Software; Topsham, Me.). The cell cycle distribution is shown as the percentage of cells containing G1, S, G2, and M phase DNA judged by propidium iodide staining The apoptotic population is determined as the percentage of cells with sub-G1 DNA content (<G1).
Previous studies have shown that overexpression of p27 (Pagano, M. et al. Science, 1995, 269:682-685), IκB-α (Verma, I. M. et al. Genes Dev, 1995, 9:2723-2735), and Bax (Li, B. and Dou, Q. P. Proc Natl Acad Sci USA, 2000, 97:3850-3855) results in G1 arrest or apoptosis. If increased levels of these proteasome target proteins by the synthetic EGCG analogs are functional, growth inhibition of tumor cells would be expected. […] The G1 population was indeed increased by 26% and 9% by treatment with GTP-4 and GTP-5, respectively (FIG. 11).

[4] = target: T2, 20S eukaryotic proteasome (Oryctolagus cuniculus, UniProt G1T4Q9); test: Inhibition of chymotrypsin-like activity of purified eukaryotic 20S proteasome (Suc-Leu-Leu-Val-Tyr-AMC); format: biochemical, rabbit; conditions: chymotrypsin-like activity, rabbit 20S proteasome
T2 construct: purchased BOSTON BIOCHEM (Cambridge, Mass.)
T2 sequence (G1T4Q9 1-263): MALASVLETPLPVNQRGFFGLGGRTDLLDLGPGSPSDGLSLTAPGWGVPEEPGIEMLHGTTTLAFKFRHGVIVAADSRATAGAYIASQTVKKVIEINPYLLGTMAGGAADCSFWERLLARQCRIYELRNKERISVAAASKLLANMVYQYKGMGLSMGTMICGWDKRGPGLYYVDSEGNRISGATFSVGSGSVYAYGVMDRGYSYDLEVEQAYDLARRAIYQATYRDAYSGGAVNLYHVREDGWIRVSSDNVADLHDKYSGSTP
Description: Materials. Highly purified tea polyphenols (−)-EGCG (>95%), (−)-GCG (>98%), (−)-ECG (>98%), (−)-CG (>98%), fetal calf serum, propidium iodide, 3-[4,5-dimethylthiazol-2-yl]-2,5-diphenyltetrazolium bromide (MTT), RNase A, and DMSO were purchased from Sigma (St. Louis, Mo.). (+)-EGCG, benzyl-protected-(+)-EGCG, (+)-GCG, (−)-EGCG-amide, and (+)-EGCG-amide were prepared by enantioselective synthesis (see below). Purified 20S eukaryotic proteasome from rabbit was purchased from BOSTON BIOCHEM (Cambridge, Mass.). Purified 20S prokaryotic proteasome (Methanosarcina thermophile, Recombinant, E. coli) was purchased from CALBIOCHEM (La Jolla, Calif.). Fluorogenic peptide substrates Suc-Leu-Leu-Val-Tyr-AMC (for the proteasomal chymotrypsin-like activity) was obtained from Calbiochem (La Jolla, Calif.). RPMI 1640 medium, Dulbecco's modified Eagle's medium, MEM non-essential amino acids solution, MEM-sodium pyruvate solution, penicillin, and streptomycin were from INVITROGEN (Carlsbad, Calif.). Monoclonal antibody to p27^Kip was purchased from PHARMINGEN (San Diego, Calif.); polyclonal antibodies to IκB-α, Bax and actin, and monoclonal antibody to ubiquitin were from SANTA CRUZ Biotechnology Inc. (Santa Cruz, Calif.).
as §1
Purified prokaryotic (0.5 μg) or eukaryotic (0.02 μg) 20S proteasome was incubated with 20 μM fluorogenic peptide substrate, Suc-Leu-Leu-Val-Tyr-AMC for 30 minutes at 37° C. in 100 μl of assay buffer ([…] Tris-HCl, pH 7.5), with or without a natural or synthetic tea polyphenol. After incubation, production of hydrolyzed AMC groups was measured using a multi-well plate VERSAFLUOR Fluorometer with an excitation filter of 380 nm and an emission filter of 460 nm.
(−)-EGCG at 1 μM was incubated with eukaryotic 20S proteasome (0.02 μg) and suc-LLVY-AMC (20 μM) for the times indicated in FIG. 7. The chymotrypsin activity was measured and graphed in FIG. 7. Values are means from 4 independent experiments, and error bars represent standard deviations.
In the second experiment (−)-EGCG at 1 μM was pre-incubated with (SDS-pre) or without 0.01% SDS (no SDS) for 1 hour, followed by addition of eukaryotic 20S proteasome (0.02 μg) and suc-LLVY-AMC (20 μM). “SDS-post” represents the same treatment as “no SDS” except 0.01% SDS was added 1 hour after addition of the proteasome, (−)-EGCG and the substrate. AMC liberation was measured by fluorescence at each indicated time point and the percentage of chymotrypsin activity was determined. Values are means from 4 independent experiments, and error bars represent standard deviations.

LNCaP cells [5] = test: Flow cytometry cell cycle analysis, LNCaP cells; format: cell-based, human; conditions: 10 μM, 24 hours
Description: as §2
It has been shown that overexpression of p27 and IκB-α results in G1 arrest. If increased levels of these proteasome target proteins by synthetic GTPs are functional, it would be expected to see growth arrest of tumor cells in G1 phase. To test this hypothesis, asynchronous prostate LNCaP cells were treated with 10 μM of synthetic (+)-EGCG or (+)-GCG, along with each respective natural GTP as control, for 24 hours. Cells were then harvested, and analyzed by cell cycle analysis by flow cytometry. […] Growth arrest was determined by the increase in the percentage of the G1 population.

LNCaP cells [6] = test: Soft agar colony formation assay; format: cell-based, human; conditions: 10 μM, 14 day-incubation
Description: Soft Agar Assay. The soft agar assay was performed according to Smith et al. (Smith, D. M. et al. Mol Med, 2002, 8:382-392) with a few modifications. In brief, in a six-well plate, a bottom feeder layer (0.6% agar) was prepared with DMEM media containing 10% fetal bovine serum, 100 units/ml penicillin, and 100 μg/ml streptomycin. A top layer (0.3% agar) was prepared with DMEM and the same media as described above but containing 2×10^4 prostate cancer LNCaP cells and indicated analogs or DMSO as a control. Plates were incubated at 37° C. in 5% CO2 in a humidified incubator for two weeks. MTT (1 mg/ml) was added to each well and incubated overnight to allow complete formation of purple formazan crystals. The plates were then scanned and photographed, and the number of colonies was quantified by QUANTITY ONE v.4.0.3 software (Bio-Rad, Hercules, Calif.).
The […] effects of several GTP analogs were investigated with a soft agar assay that measures the transforming activity of human tumor cells. LNCaP cells were plated in soft agar (see Materials and Methods) along with 50 μM of GTP-1, -2, -3, (−)-EGCG (as a positive control; Smith, D. M. et al. Mol Med, 2002, 8:382-392, 2002), or the solvent (as a negative control), followed by a 14 day-incubation to allow for colony formation (FIGS. 12A and 12B).
In a second experiment, LNCaP cells were plated in soft agar along with 10 μM of each indicated GTP or solvent (H2O), followed by a 14 day-incubation to allow for colony formation (FIG. 21A). […] Colonies were quantified with an automated counter and presented as mean values from triplicate independent experiments. Error bars denote standard deviations.

Molecule | inhibition of the proteasome (in words) (purified 20S proteasome [1]) | IC50 (purified 20S proteasome [2]) [nM] | levels of Bax protein (LNCaP cells [3]) | levels of proteasome target proteins (p27, IκB-α) (LNCaP cells [3]) | increase of G1 population (Jurkat T cells) [%] | increase of sub-G1 DNA cell population (Jurkat T cells) [%] | also measured
COC(=O)c1cc(O)c(O)c(O)c1 [methyl gallate, reference compound] | cannot inhibit the proteasome |  |  |  |  |  | 
O=C(O[C@H]1Cc2ccccc2C[C@H]1OC(=O)c1cc(O)c(O)c(O)c1)c1cc(O)c(O)c(O)c1 [GTP-4] |  | 340 | increased only at 12 hours | significant increase in levels of p27 and IκB-α | 26 | ~15 | 
benzyl hydroxybenzoate [reference compound] | cannot inhibit the proteasome |  |  |  |  |  | 
COC(C)=O [methyl acetate, reference compound] | cannot inhibit the proteasome |  |  |  |  |  | 
O=C(OC1Cc2c(O)cc(O)cc2OC1c1cc(O)c(O)c(O)c1)c1cc(O)c(O)c(O)c1 (single isomer, unassigned; (-)) [(−)-GCG, reference compound] |  |  |  |  |  |  | IC50 [4]: 610 nM; increase of G1 population (G1 arrest) (LNCaP cells [5]): ~14%; inhibition of colony formation (LNCaP cells [6]): 99%
O=C(O[C@H]1Cc2cc(O)ccc2C[C@H]1OC(=O)c1cc(O)c(O)c(O)c1)c1cc(O)c(O)c(O)c1 [GTP-5] |  | 730 | increased only at 12 hours | significant increase in levels of p27 and IκB-α | 9 | ~15 | 
